For 9 molecules, Kd results are on record in patent US20250332264A1, “GhR-BINDING PEPTIDE AND COMPOSITION COMPRISING SAME” (priority 2021, published 2025).

For orientation: Kd means a measure of binding affinity in units of concentration.

Starred links: 1 amine or outer side, 2 acyl side, 3 side chain; linkers in the order of their positions; H or OH if unused. Positions of bridges follow the written chain, without caps; N, C: chain ends. Non-standard residues stand in square brackets, D forms with d. Residues, ends and D or L forms follow the SMILES beside them. Groups on a side chain read outwards from the residue. *: point of attachment. X8 = NC(=O)[C@H](CCCCN*)NC(=O)COCCOCCNC(=O)COCCOCCNC(=O)CC[C@H](NC(=O)CC[C@H](NC(=O)CCCCCCCCCCCCCC(=O)O)C(=O)O)C(=O)O; X3 = NC(=O)[C@H](CCCCN*)NC(=O)CC[C@H](NC(=O)CC[C@H](NC(=O)CCCCCCCCCCCCCCC(=O)O)C(=O)O)C(=O)O; X6 = NC(=O)[C@H](CCCCN*)NC(=O)CC[C@H](NC(=O)CC[C@H](NC(=O)CCCCCCCCCCCCCC(=O)O)C(=O)O)C(=O)O; X10 = NC(=O)[C@H](CCCCN*)NC(=O)CC[C@H](NC(=O)CC[C@H](NC(=O)CCCc1ccc(I)cc1)C(=O)O)C(=O)O; Trp(1-CH2CO) = O=C([C@H](Cc1cn(CC(=O)[*:3])c2ccccc12)N[*:1])[*:2]; Trp(5-OMe) = COc1ccc2[nH]cc(C[C@H](N)C(=O)O)c2c1; Butanoyl(4-(4-I-phenyl)) = O=C(CCCc1ccc(I)cc1)*; Trp(5-OH) = N[C@@H](Cc1c[nH]c2ccc(O)cc12)C(=O)O; Phe(4-COOH) = N[C@@H](Cc1ccc(C(=O)O)cc1)C(=O)O; Trp(7-aza) = N[C@@H](Cc1c[nH]c2ncccc12)C(=O)O; Piperazinyl(4-CH2COOH) = O=C(O)CN1CCN(*)CC1; X7 = O=C(O)CN1CCC(N[*:1])(C(=O)[*:2])CC1; γGlu = O=C(O)[C@H](CCC(=O)[*:2])N[*:1]; Ahp(2) = CCCCC[C@H](N)C(=O)O; NMeK = CN[C@@H](CCCCN)C(=O)O; Aib = CC(C)(N)C(=O)O; CO = O=C([*:1])[*:2]

This test deals with T1, Recombinant human GhR-Fc protein (Homo sapiens, UniProt P10912).
T1 construct: purchased R&D Systems
T1 sequence (P10912 with tags, fused parts or gaps limits assumed): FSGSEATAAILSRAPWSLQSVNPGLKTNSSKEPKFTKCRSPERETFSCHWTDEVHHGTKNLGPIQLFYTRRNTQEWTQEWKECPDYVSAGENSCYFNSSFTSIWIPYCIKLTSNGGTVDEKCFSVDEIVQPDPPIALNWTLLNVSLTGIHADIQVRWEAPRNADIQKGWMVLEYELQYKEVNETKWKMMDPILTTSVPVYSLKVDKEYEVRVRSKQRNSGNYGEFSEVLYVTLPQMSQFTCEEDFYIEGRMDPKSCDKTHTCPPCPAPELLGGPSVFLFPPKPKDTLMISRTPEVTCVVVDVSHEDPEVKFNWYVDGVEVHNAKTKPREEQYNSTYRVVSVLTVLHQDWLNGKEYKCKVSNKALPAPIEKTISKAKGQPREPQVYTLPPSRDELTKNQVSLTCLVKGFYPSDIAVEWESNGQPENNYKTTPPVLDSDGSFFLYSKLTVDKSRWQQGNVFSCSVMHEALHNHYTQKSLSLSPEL
Kind of test: Binding activity of hGhR binding peptide by surface plasmon resonance (SPR), Biacore T200, single-cycle kinetics. To be noted: human GhR-Fc immobilized on CM5 chip, KD calculated from ka and kd. On the procedure: SPR assay was performed using Biacore T200 (cytiva: Former GE Healthcare). After the equilibration of Series S Sensor Chip CM5 (produced by cytiva: Former GE Healthcare) with Running Buffer (HBS-EP with 1% (v/v) DMSO), an EDC/NHS mixture was injected at a flow rate of 10 μL/min for 7 minutes to thereby activate the functional groups on sensor chip. Recombinant human GhR-Fc protein (R&D Systems) in 10 mM Acetate (pH4.0) was injected immobilized to at a flow rate of 5 μL/min. It took 7 minutes to immobilize the GhR on the substrate surfaces of the sensor chip. Then Ethanolamine was injected at a flow rate of 10 μL/min for 7 minutes. 1M Ethanolamine (aq.) was injected at a flow rate of 10 μL/min for 420 seconds for capping.
Using these Peptide Samples, kinetics of peptides against human GhR-Fc protein were measured. The method adopted for sample measurement was a single-cycle kinetics method. The analysis was conducted using the evaluation software provided with Biacore T200. A DMSO correction curve obtained by solvent correction measurements was applied for the analysis. Kinetics fitting was done on the difference data obtained by subtracting the baseline data from sample measurement data. KD values were calculated based on the association rate constant (ka) and dissociation rate constant (kd).
Furthermore, “obs. m/z [M+2H]2+” indicates the ESI-MS(+) observed value. Unless otherwise specified, this is bivalent ([M+2H]^2+).

Consider `CC(C)[C@@H]1NC(=O)[C@H](C(C)C)NC(=O)[C@H](CCCCNC(=O)CC[C@H](NC(=O)CCCc2ccc(I)cc2)C(=O)O)N(C)C(=O)[C@H](Cc2ccc(O)cc2)NC(=O)CSC[C@@H](C(N)=O)NC(=O)[C@H](C(C)C)NC(=O)C(C)(C)NC(=O)[C@H](Cc2c[nH]c3ccc(O)cc23)NC(=O)[C@H](CCCCN)NC(=O)[C@H](Cc2ccc(C(=O)O)cc2)NC(=O)[C@H](Cc2c[nH]c3ncccc23)NC(=O)[C@H](CC(N)=O)NC(=O)[C@H](CO)NC1=O` [Compound 43] ({CH2CO}-Y[NMeK]([γGlu-Butanoyl(4-(4-I-phenyl))])VVSN[Trp(7-aza)][Phe(4-COOH)]K[Trp(5-OH)][Aib]VC-NH2; thioether N-13), for which the Kd is 3.95 nM.

For `CC(C)[C@@H]1NC(=O)[C@H](C(C)C)NC(=O)[C@@H]2CCCCNC(=O)Cn3cc(c4ccccc43)C[C@H](NC(=O)[C@H](CC(N)=O)NC(=O)[C@H](CO)NC1=O)C(=O)N[C@@H](Cc1ccc(C(=O)O)cc1)C(=O)N[C@@H](CCCCN)C(=O)N[C@@H](Cc1c[nH]c3ccc(O)cc13)C(=O)NC(C)(C)C(=O)N[C@@H](C(C)C)C(=O)N[C@H](C(=O)NCCCC[C@H](NC(=O)CC[C@H](NC(=O)CC[C@H](NC(=O)CCCCCCCCCCCCCCC(=O)O)C(=O)O)C(=O)O)C(N)=O)CSCC(=O)N[C@@H](Cc1ccc(O)cc1)C(=O)N2C` [Compound 24] ({CH2CO}-Y[NMeK]VVSN[Trp(1-CH2CO)][Phe(4-COOH)]K[Trp(5-OH)][Aib]VC-X3; lactam 2-7; thioether N-13), the dissociation constant (Kd) is 2.59 nM.

Consider `CC(C)[C@@H]1NC(=O)[C@H](C(C)C)NC(=O)[C@@H]2CCCCNC(=O)Cn3cc(c4ccccc43)C[C@H](NC(=O)[C@H](CC(N)=O)NC(=O)[C@H](CO)NC1=O)C(=O)N[C@@H](Cc1ccc(C(=O)O)cc1)C(=O)N[C@@H](CCCCN)C(=O)N[C@@H](Cc1c[nH]c3ccc(O)cc13)C(=O)NC(C)(C)C(=O)N[C@@H](C(C)C)C(=O)N[C@H](C(=O)NCCCC[C@H](NC(=O)COCCOCCNC(=O)COCCOCCNC(=O)CC[C@H](NC(=O)CC[C@H](NC(=O)CCCCCCCCCCCCCC(=O)O)C(=O)O)C(=O)O)C(N)=O)CSCC(=O)N[C@@H](Cc1ccc(C(=O)O)cc1)C(=O)N2C` [Compound 63] ({CH2CO}-[Phe(4-COOH)][NMeK]VVSN[Trp(1-CH2CO)][Phe(4-COOH)]K[Trp(5-OH)][Aib]VC-X8; lactam 2-7; thioether N-13), for which the Kd was 3.7 nM.

Turning to `CC(C)[C@@H]1NC(=O)[C@H](C(C)C)NC(=O)[C@@H]2CCCCNC(=O)Cn3cc(c4ccccc43)C[C@H](NC(=O)[C@H](CC(N)=O)NC(=O)[C@H](CO)NC1=O)C(=O)N[C@@H](Cc1ccc(C(=O)O)cc1)C(=O)N[C@@H](CCCCNC(=O)N1CCN(CC(=O)O)CC1)C(=O)N[C@@H](Cc1c[nH]c3ccc(O)cc13)C(=O)NC(C)(C)C(=O)N[C@@H](C(C)C)C(=O)N[C@H](C(=O)NCCCC[C@H](NC(=O)CC[C@H](NC(=O)CC[C@H](NC(=O)CCCCCCCCCCCCCCC(=O)O)C(=O)O)C(=O)O)C(N)=O)CSCC(=O)N[C@@H](Cc1ccc(O)cc1)C(=O)N2C` [Compound 22] ({CH2CO}-Y[NMeK]VVSN[Trp(1-CH2CO)][Phe(4-COOH)]K([CO-Piperazinyl(4-CH2COOH)])[Trp(5-OH)][Aib]VC-X3; lactam 2-7; thioether N-13), the equilibrium dissociation constant (Kd) is 11.2 nM.

For the molecule `COc1ccc2[nH]cc(C[C@@H]3NC(=O)[C@H](CC(N)=O)NC(=O)[C@H](CO)NC(=O)[C@H](C(C)C)NC(=O)[C@H](C(C)C)NC(=O)[C@H](CCCCNC(=O)CC[C@H](NC(=O)CCCc4ccc(I)cc4)C(=O)O)N(C)C(=O)[C@H](Cc4ccc(O)cc4)NC(=O)CSC[C@@H](C(=O)NCC(=O)N4CCC[C@H]4C(=O)N[C@H](CO)C(=O)N[C@H](CO)C(=O)N[C@H](CO)C(N)=O)NC(=O)[C@H](C(C)C)NC(=O)C(C)(C)NC(=O)[C@H](Cc4c[nH]c5ccc(O)cc45)NC(=O)[C@H](CCCCN)NC(=O)[C@H](Cc4ccc(O)cc4)NC3=O)c2c1` [Compound 46] ({CH2CO}-Y[NMeK]([γGlu-Butanoyl(4-(4-I-phenyl))])VVSN[Trp(5-OMe)]YK[Trp(5-OH)][Aib]VCGP[dS][dS][dS]-NH2; thioether N-13), the Kd is 1.07 nM.

On to `CCCCC[C@@H]1NC(=O)[C@H](Cc2ccc(C(=O)O)cc2)NC(=O)[C@@H]2Cc3cn(c4ccccc34)CC(=O)NCCCC[C@@H](C(=O)N[C@@H](C(C)C)C(=O)N[C@@H](C(C)C)C(=O)N[C@@H](CO)C(=O)N[C@@H](CC(N)=O)C(=O)N2)N(C)C(=O)[C@H](Cc2ccc(C(=O)O)cc2)NC(=O)CSC[C@@H](C(=O)NCCCC[C@H](NC(=O)CC[C@H](NC(=O)CC[C@H](NC(=O)CCCc2ccc(I)cc2)C(=O)O)C(=O)O)C(N)=O)NC(=O)[C@H](C(C)C)NC(=O)C(C)(C)NC(=O)[C@H](Cc2c[nH]c3ccc(O)cc23)NC1=O` [Compound 6] ({CH2CO}-[Phe(4-COOH)][NMeK]VVSN[Trp(1-CH2CO)][Phe(4-COOH)][Ahp(2)][Trp(5-OH)][Aib]VC-X10; lactam 2-7; thioether N-13), for which the Kd was 1.82 nM.

On to `CC(C)[C@@H]1NC(=O)[C@H](C(C)C)NC(=O)[C@@H]2CCCCNC(=O)Cn3cc(c4ccccc43)C[C@H](NC(=O)[C@H](CC(N)=O)NC(=O)[C@H](CO)NC1=O)C(=O)N[C@@H](Cc1ccc(C(=O)O)cc1)C(=O)N[C@@H](CCCCN)C(=O)N[C@@H](Cc1c[nH]c3ccc(O)cc13)C(=O)NC(C)(C)C(=O)N[C@@H](C(C)C)C(=O)N[C@H](C(=O)NCC(=O)N1CCC[C@H]1C(=O)N[C@H](CO)C(=O)N[C@H](CO)C(=O)N[C@H](CO)C(=O)NCCCC[C@H](NC(=O)CC[C@H](NC(=O)CC[C@H](NC(=O)CCCc1ccc(I)cc1)C(=O)O)C(=O)O)C(N)=O)CSCC(=O)N[C@@H](Cc1ccc(C(=O)O)cc1)C(=O)N2C` [Compound 14] ({CH2CO}-[Phe(4-COOH)][NMeK]VVSN[Trp(1-CH2CO)][Phe(4-COOH)]K[Trp(5-OH)][Aib]VCGP[dS][dS][dS]-X10; lactam 2-7; thioether N-13), for which the Kd was 1.88 nM.

In the case of `COc1ccc2[nH]cc(C[C@@H]3NC(=O)[C@H](CC(N)=O)NC(=O)[C@H](CO)NC(=O)[C@H](C(C)C)NC(=O)[C@H](C(C)C)NC(=O)[C@H](CCCCNC(=O)CC[C@H](NC(=O)CC[C@H](NC(=O)CCCc4ccc(I)cc4)C(=O)O)C(=O)O)N(C)C(=O)[C@H](Cc4ccc(O)cc4)NC(=O)CSC[C@@H](C(=O)NCC(=O)N4CCC[C@H]4C(=O)N[C@H](CO)C(=O)N[C@H](CO)C(=O)N[C@H](CO)C(N)=O)NC(=O)[C@H](C(C)C)NC(=O)C4(CCN(CC(=O)O)CC4)NC(=O)[C@H](Cc4c[nH]c5ccc(O)cc45)NC(=O)[C@H](CCCCN)NC(=O)[C@H](Cc4ccc(C(=O)O)cc4)NC3=O)c2c1` [Compound 52] ({CH2CO}-Y[NMeK]([γGlu-γGlu-Butanoyl(4-(4-I-phenyl))])VVSN[Trp(5-OMe)][Phe(4-COOH)]K[Trp(5-OH)][X7]VCGP[dS][dS][dS]-NH2; thioether N-13), the Kd was 5.47 nM.

As for `CC(C)[C@@H]1NC(=O)[C@H](C(C)C)NC(=O)[C@@H]2CCCCNC(=O)Cn3cc(c4ccccc43)C[C@H](NC(=O)[C@H](CC(N)=O)NC(=O)[C@H](CO)NC1=O)C(=O)N[C@@H](Cc1ccc(C(=O)O)cc1)C(=O)N[C@@H](CCCCN)C(=O)N[C@@H](Cc1c[nH]c3ccc(O)cc13)C(=O)NC(C)(C)C(=O)N[C@@H](C(C)C)C(=O)N[C@H](C(=O)NCCCC[C@H](NC(=O)CC[C@H](NC(=O)CC[C@H](NC(=O)CCCCCCCCCCCCCC(=O)O)C(=O)O)C(=O)O)C(N)=O)CSCC(=O)N[C@@H](Cc1ccc(C(=O)O)cc1)C(=O)N2C` [Compound 60] ({CH2CO}-[Phe(4-COOH)][NMeK]VVSN[Trp(1-CH2CO)][Phe(4-COOH)]K[Trp(5-OH)][Aib]VC-X6; lactam 2-7; thioether N-13), the Kd is 3.1 nM.
